Counter-ions that a name gives are not always drawn.

The target in the assay is T1, α-1A adrenoceptor (dog prostate) (Canis lupus, UniProt A0A8I3NK63).
T1 sequence (A0A8I3NK63 1-466): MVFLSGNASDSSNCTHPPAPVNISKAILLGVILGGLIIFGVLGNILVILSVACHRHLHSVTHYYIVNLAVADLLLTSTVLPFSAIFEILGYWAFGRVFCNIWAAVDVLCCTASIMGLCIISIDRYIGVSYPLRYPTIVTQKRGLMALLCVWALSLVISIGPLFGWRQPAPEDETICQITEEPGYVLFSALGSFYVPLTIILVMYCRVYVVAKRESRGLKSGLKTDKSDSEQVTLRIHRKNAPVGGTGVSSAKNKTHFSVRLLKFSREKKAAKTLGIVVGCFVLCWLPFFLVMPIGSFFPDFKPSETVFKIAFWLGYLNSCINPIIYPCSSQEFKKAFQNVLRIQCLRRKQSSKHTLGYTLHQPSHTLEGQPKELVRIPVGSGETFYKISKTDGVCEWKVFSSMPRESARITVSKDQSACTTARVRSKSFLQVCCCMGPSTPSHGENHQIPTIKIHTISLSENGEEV
Description: Functional antagonism: phenylephrine (PE)-induced contraction of canine prostate strips. It counts as cell-based. The settings on record: Table 2b; vs phenylephrine; Schild plot. From the text:
Functional assays indicative of pharmacologically defined α-1 adrenoceptors were used to further characterize compounds. Inhibition of phenylephrine (PE)-induced contraction of canine prostate smooth muscle can be correlated with α-1A adrenoceptor activation. […] For each of these models, agonist dose response curves were repeated against increasing concentrations of test agent to derive a Schild plot [log ([…]) against log (molarity of test agent)] to determine the pA2.
Canine prostate strips were used in vitro as previously described (Hieble, J. P., Boyce, A. J. and Caine, M., Fed. Proc., 45:2609-2614 (1986)), to determine antagonist potencies against phenylephrine-induced contractions.
For `COc1cccc2c1CC[C@H]1CN(CCn3c(=O)[nH]c4c(sc5c(Cl)cccc54)c3=O)C[C@@H]21` [Example 56, 3-[2-((3aR,9bR)-cis-6-Methoxy-2,3,3a,4,5,9b-hexahydro-[1H]-benz[e]isoindol-1-yl)ethyl]-[1]-6-chloro-benzothieno[3,2-d]pyrimidine-2,4(1H,3H)-dione hydrochloride], the “pA2 Dog Prostate [α-1A]” value is listed as 7.11.

Regarding `COc1cccc2c1CC[C@H]1CN(CCn3c(=O)[nH]c4c(sc5cc(Cl)ccc54)c3=O)C[C@@H]21` [Example 57, 3-[2-((3aR,9bR)-cis-6-Methoxy-2,3,3a,4,5,9b-hexahydro-[1H]-benz[e]isoindol-1-yl)ethyl]-[1]-7-chloro-benzothieno[3,2-d]pyrimidine-2,4(1H,3H)-dione hydrochloride], the “pA2 Dog Prostate [α-1A]” value was found to be 7.43.

On to `COc1cccc2c1CC[C@H]1CN(CCn3c(=O)c4sc5cccnc5c4n(C)c3=O)C[C@@H]21` [Example 61, dihydrochloride], for which the “pA2 Dog Prostate [α-1A]” value was determined as 9.5.

As to `COc1cccc2c1CC[C@H]1CN(CCn3c(=O)[nH]c4c(sc5c(Cl)ccnc54)c3=O)C[C@@H]21` [Example 63, 3-[2-((3aR,9bR)-cis-6-Methoxy-2,3,3a,4,5,9b-hexahydro-[1H]-benz[e]isoindol-1-yl)ethyl]-6-chloro-pyrido[2',3':4,5]thieno[3,2-d]pyrimidine-2,4(1H,3H)-dione dihydrochloride], the “pA2 Dog Prostate [α-1A]” value was 8.6.

For the compound `COc1cccc2c1CC[C@H]1CN(CCn3c(=O)[nH]c4c(sc5c(OC)ccnc54)c3=O)C[C@@H]21` [Example 65, dihydrochloride], the “pA2 Dog Prostate [α-1A]” value came out at 8.75.

As to `COc1cccc2c1CC[C@H]1CN(CCn3cnc4c([nH]c5ccccc54)c3=O)C[C@@H]21` [Example 66, 3-2-((3aR,9bR)-cis-6-Methoxy-2,3,3a,4,5,9b-hexahydro-[1H]-benz[e]isoindol-1-yl)ethyl]-1H-pyrimido[5,4-b]indole-4(1H,3H)-one hydrochloride], the “pA2 Dog Prostate [α-1A]” value amounted to 9.71.

Take `COc1cccc2c1CC[C@H]1CN(CCn3c(=O)[nH]c4c(sc5ccc(Cl)cc54)c3=O)C[C@@H]21` [Example 67, hydrochloride]: the “pA2 Dog Prostate [α-1A]” value is 8.98.

For the compound `COc1cc2sc3c(=O)n(CCN4C[C@@H]5CCc6c(OC)cccc6[C@@H]5C4)c(=O)[nH]c3c2cc1OC` [Example 68, 3-[2-((3aR,9bR)-cis-6-Methoxy-2,3,3a,4,5,9b-hexahydro-[1H]-benz[e]isoindol-1-yl)ethyl]-[1]-7,8-dimethoxy-benzothieno[3,2-d]pyrimidine-2,4(1H,3H)-dionehydrochloride], the “pA2 Dog Prostate [α-1A]” value was found to be 7.87.

Take `COc1cccc2c1CC[C@H]1CN(CCN3CNc4c(sc5ncccc45)C3=O)C[C@@H]21` [Example 70, dihydrochloride]: the “pA2 Dog Prostate [α-1A]” value was 8.57.

As for `COc1cccc2c1CC[C@H]1CN(CCn3cnc4c(sc5nccnc54)c3=O)C[C@@H]21` [Example 71, 3-[2-(cis-(3.aR,9bR)-6-Methoxy-2,3 .,3a,4,5,9b-hexahydro-[1H]-benz[e]isoindol-1-yl)ethyl]-pyrazino[2',3':4,5]thieno[3,2-d]pyrimidine-4(1H,3H)-one hydrochloride], the “pA2 Dog Prostate [α-1A]” value was 9.21.

Consider `COc1cccc2c1CC[C@H]1CN(CCn3c(=O)[nH]c4c(sc5cccc(Cl)c54)c3=O)C[C@@H]21` [Example 72, 3-[2-((3aR,9bR)-cis-6-Methoxy-2,3,3a,4,5,9b-hexahydro-[1H]-benz[e]isoindol-1-yl)ethyl]-[1]-9-chloro-benzothieno[3,2-d]pyrimidine-2,4(1H,3H)-dione hydrochloride], for which the “pA2 Dog Prostate [α-1A]” value turned out to be 8.38.

As to `COc1cccc2c1CC[C@H]1CN(CCn3c(=O)[nH]c4c(sc5cccc(OC)c54)c3=O)C[C@@H]21` [Example 73, 3-[2-((3aR,9bR)-cis-6-Methoxy-2,3,3a,4,5,9b-hexahydro-[1H]-benz[e]isoindol-1-yl)ethyl]-[1]-9-methoxy-benzothieno[3,2-d]pyrimidine-2,4(1H,3H)-dione hydrochloride], the “pA2 Dog Prostate [α-1A]” value came to 8.42.

For the compound `COc1cccc2c1CC[C@H]1CN(CCn3c(=O)[nH]c4c(sc5ccc(C)cc54)c3=O)C[C@@H]21` [Example 74, 3-[2,((3aR,9bR)-cis-6-Methoxy-2,3,3a,4,5,9b-hexahydro-[1H]-benz[e]isoindol-1-yl)ethyl]-[1]-8-methyl-benzothieno[3,2-d]pyrimidine-2,4(1H,3H)-dione hydrochloride], the “pA2 Dog Prostate [α-1A]” value amounted to 8.7.

Consider `COc1cccc2c1CC[C@H]1CN(CCn3c(=O)[nH]c4c(oc5cccnc54)c3=O)C[C@@H]21` [Example 77, 3-[2-((3aR,9bR)-cis-6-Methoxy-2,3,3a,4,5,9b-hexahydro-[1H]-benz[e]yl)ethyl]-pyrido[2',3':4,5]furo[3,2-d]pyrimidine-2,4(1H3 H)-dione hydrochloride], for which the “pA2 Dog Prostate [α-1A]” value turned out to be 9.09.

On to `COc1cccc2c1CC[C@@H]1CN(CCn3c(=O)[nH]c4c(sc5cccnc54)c3=O)C[C@H]21` [Example 78, dihydrochloride], for which the “pA2 Dog Prostate [α-1A]” value stood at 7.8.

Regarding `COc1cccc2c1[C@@H]1CN(CCCCn3c(=O)[nH]c4c(sc5cccnc54)c3=O)C[C@@H]1CC2` [Example 79, dihydrochloride], the “pA2 Dog Prostate [α-1A]” value is 8.77.

In the case of `COc1cccc2c1[C@@H]1CN(CCCCn3c(=O)[nH]c4c(sc5nccnc54)c3=O)C[C@@H]1CC2` [Example 80, hydrochloride], the “pA2 Dog Prostate [α-1A]” value is given as 8.08.

With `COc1cccc2c1CC[C@H]1CN(CCn3c(=O)[nH]c4c(ccc5ncccc54)c3=O)C[C@@H]21` [Example 82, 3-[2-((3aR,9bR)cis-6-Methoxy-2,3,3a,4,5,9b-hexahydro-[1H]-benz[e]isoindol-1-yl)ethyl]-pyrido[2,3-h]quinazoline-2,4(1H,3H)-dione hydrochloride], the “pA2 Dog Prostate [α-1A]” value is 9.09.

On to `COc1cccc2c1CC[C@H]1CN(CCn3c(=O)[nH]c4c(ccc5cccnc54)c3=O)C[C@@H]21` [Example 83, hydrochloride], for which the “pA2 Dog Prostate [α-1A]” value worked out at 8.43.

Consider `COc1cccc2c1CC[C@H]1CN(CCn3c(=O)[nH]c4c(ccc5cnccc54)c3=O)C[C@@H]21` [Example 84, hydrochloride], for which the “pA2 Dog Prostate [α-1A]” value is 8.99.

On to `COc1cccc2c1CC[C@H]1CN(CCn3c(=O)[nH]c4c(sc5nc(-c6ccccc6)cnc54)c3=O)C[C@@H]21` [Example 91, hydrochloride], for which the “pA2 Dog Prostate [α-1A]” value came out at 6.66.

Take `COc1cccc2c1CC[C@H]1CN(CCn3c(=O)[nH]c4c(sc5nc(C)cnc54)c3=O)C[C@@H]21` [Example 92, hydrochloride]: the “pA2 Dog Prostate [α-1A]” value is 9.1.

With `COc1cccc2c1CC[C@H]1CN(CCn3c(=O)c4sc5nccnc5c4n(C)c3=O)C[C@@H]21` [Example 95, hydrochloride], the “pA2 Dog Prostate [α-1A]” value was determined as 9.07.

In the case of `COc1cccc2c1CC[C@H]1CN(CCn3c(=O)c4sc5nccnc5c4n(Cc4ccccc4)c3=O)C[C@@H]21` [Example 96, hydrochloride], the “pA2 Dog Prostate [α-1A]” value was 7.46.

`COc1cccc2c1CC[C@H]1CN(CCn3c(=O)[nH]c4c([nH]c5ccncc54)c3=O)C[C@@H]21` [Example 97, hydrochloride]: the “pA2 Dog Prostate [α-1A]” value was found to be 9.66.

On to `CCn1c(=O)n(CCN2C[C@@H]3CCc4c(OC)cccc4[C@@H]3C2)c(=O)c2sc3nccnc3c21` [Example 98, hydrochloride], for which the “pA2 Dog Prostate [α-1A]” value came out at 9.39.

Consider `COc1cccc2c1CC[C@H]1CN(CCn3c(=O)[nH]c4c(sc5ncc(-c6ccccc6)nc54)c3=O)C[C@@H]21` [Example 99, hydrochloride], for which the “pA2 Dog Prostate [α-1A]” value amounted to 7.92.

Regarding `COc1cccc2c1CC[C@H]1CN(CCn3c(=O)[nH]c4c(sc5nc(-c6ccccc6)c(-c6ccccc6)nc54)c3=O)C[C@@H]21` [Example 100, 3-[2-(cis-(3aR,9bR)-6-Methoxy-2,3,3a,4,5,9b-hexahydro-[1H]-benz[e]isoindol-1-yl)ethyl]-7,8-diphenylpyrazino[2',3':4,5]thieno[3,2-d]pyrimidine-2,4(1H,3H)-dione hydrochloride], the “pA2 Dog Prostate [α-1A]” value is recorded as 6.92.

Regarding `CCCCn1c(=O)n(CCN2C[C@@H]3CCc4c(OC)cccc4[C@@H]3C2)c(=O)c2sc3nccnc3c21` [Example 101, hydrochloride], the “pA2 Dog Prostate [α-1A]” value is listed as 7.31.

`COc1cccc2c1CC[C@H]1CN(CCn3c(=O)[nH]c4c(sc5nc(C)c(C)nc54)c3=O)C[C@@H]21` [Example 103, hydrochloride]: the “pA2 Dog Prostate [α-1A]” value worked out at 9.43.

Consider `COCCn1c(=O)n(CCN2C[C@@H]3CCc4c(OC)cccc4[C@@H]3C2)c(=O)c2sc3nccnc3c21` [Example 104, 3-[2-(cis-(3aR,9bR)-6-Methoxy-2,3,3a,4,5,9b-hexahydro-[1H]-benz[e]isoindol-1-yl)ethyl]-1-(2-methoxyethyl)pyrazino[2',3':4,5]thieno[3,2-d]pyrimidine-2,4(1H,3H)-dione hydrochloride], for which the “pA2 Dog Prostate [α-1A]” value stood at 9.74.

Consider `COCCn1c(=O)n(CCN2C[C@@H]3CCc4c(OC)cccc4[C@@H]3C2)c(=O)c2sc3cccnc3c21` [Example 105, hydrochloride], for which the “pA2 Dog Prostate [α-1A]” value was found to be 8.58.
